{"source": "paper PMC6370856", "about": "“Peptidyl prolyl cis/trans isomerase activity on the cell surface correlates with extracellular matrix development” (Communications Biology, 2019)", "key": {"Pin1": {"target": "T1, Pin1 (Homo sapiens, UniProt Q13526)", "T1 construct": "host or cells: Escherichia coli BL21 (DE3)", "T1 sequence (Q13526 with tags, fused parts or gaps)": "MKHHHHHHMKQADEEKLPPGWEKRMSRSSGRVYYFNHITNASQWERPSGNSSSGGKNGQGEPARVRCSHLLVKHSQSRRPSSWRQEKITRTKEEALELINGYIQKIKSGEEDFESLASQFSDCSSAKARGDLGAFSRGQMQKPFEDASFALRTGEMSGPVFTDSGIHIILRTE", "test": "Liquid chromatography-based protease-coupled PPIase activity assay, Pin1 (nagarse)", "format": "biochemical", "text": "A small gap was opened on"}, "[1]": {"system": "mixture of Jurkat T lymphocyte and the plasma protein fibrinogen", "test": "Viscosity/shear rate measurement of Jurkat cells in fibrinogen solution", "format": "cell-based", "text": "Since PPIases can catalyze the dynamic rearrangement of the dense ECM polymer network, we speculated that PPIases could also affect the dynamic interaction between cells and the ECM. Probing the influence of transient prolyl isomerization on cell–ECM interaction is difficult. Studying cell adhesion by the treatment of PPIase inhibitors cannot distinguish extracellular and intracellular factors as well as receptor-mediated signaling due to the long assay time. In order to reflect the highly dynamic process, we measured the viscosity of plasma protein solution with cells. Blood is a shear-thinning non-Newtonian fluid, and its viscosity is largely affected by the interaction between cells and plasma proteins, for example, the coagulation process. We investigated whether the catalyzed isomerization could also influence the interaction between blood cells and plasma proteins, thus affecting the viscosity. We performed viscosity/shear rate measurements using a mixture of Jurkat T lymphocyte and the plasma protein fibrinogen.\nThe machine used for viscosity is the same as for stiffness measurements. To 30 µL of 4 mg mL^−1 fibrinogen, an equal volume of Jurkat cells (8 × 10^7 mL^−1 in PBS, washed two times with PBS before used; Jurkat cells ocupated around 20% of the volume) was added. The mixture was pipetted up and down six times, kept on ice for 10 min, and then transferred to the rheometer plater (25 °C) for measurements. The plate temperature was raised to 37 °C. The measurement was performed by increasing shear rate ramp liner from 100 to 1000 s^−1. Hundred data points were collected during the measurements. For each condition, two independent experiments were performed (Fig. 1c and Supplementary Fig. 3)."}, "[2]": {"system": "PBMC samples from healthy donors, mixed", "test": "PACS in a two-way mixed lymphocyte reaction", "format": "cell-based, human", "details": "for cell surface PPIase activity k, Exp. 1 / cell surface PPIase activity k, Exp. 2 / cell surface PPIase activity k, Exp. 3 / cell surface PPIase activity k, Exp. 4 / cell surface PPIase activity k, Mean: 24 hours", "experimental": "PACS were measured with four PBMC samples from healthy donors or with all six different combinations. […] After 24 h, diminished activity was detected in all combinations (Fig. 6d). For two combinations, no trace of activity could be detected, resembling the results from some primary samples of leukemia cells.\nMixed lymphocyte reaction is a routine assay used to measure the safety of implantable materials and the effect of immunosuppressive treatments. The PACS assay could become an alternative test, within a relatively short period of time, avoiding the use of biochemical reagents such as antibodies.\nThe assay was performed in a cold room. If there was no additional description, the assays were performed in CO2-independent medium supplemented with 10% (v/v) h.i. FBS (medium-h.i. FBS) and 2mM L-glutamine. […] FBS to a final concentration of 120 µg mL^−1 (two times substrate stock). α-Chymotrypsin was prepared freshly. Fifteen micrograms of α-chymotrypsin was dissolved in 2 mL medium-h.i. FBS, and the pH was adjusted with 10 µL 1 M NaOH. Five millimole CsA, SLF, and CsA/SLF mixture were prepared in DMSO.\nOne or more flasks of cells (5 mL per flask, depending on the maximum culture density of each cell line) were harvested by centrifuging at 1000 rpm for 3 min. To remove PPIases from the supernatant originating from the culture, cells were washed one time with 2 mL CO2-independent medium and were resuspended in 1.6 mL of CO2-independent medium with substrate. The cells were centrifuged again, and then 800 µL of the supernatant was taken. The residual volume containing cells was suspended. Nineteen microliters of the cells or supernatant was pipetted to a non-binding 96-well microplate to measure PPIase activity. Four different conditions were performed. […] The plate was kept for 5 min without agitation. The activity measurements were triggered by adding 20 µL of α-chymotrypsin at time 0 min, followed by 1.5 min agitation, and the reaction was stopped after 2 min with 80 µL 20% acetic acid, followed by 15 rounds of up and down pipetting mixing. Four independent experiments were performed on the same day."}}, "data": [{"compound": "O=P(O)(O)O", "note": "[PO4-, inorganic phosphate, reference compound]", "values": [{"measurement": "Pin catalyzing cis to trans isomerization rate k, Exp. 1", "setting": "Pin1; 25 nM Pin1 + 50 mM PO4-", "result": 0.0025, "unit": "s⁻¹"}, {"measurement": "Pin catalyzing cis to trans isomerization rate k, Exp. 3", "setting": "Pin1; 25 nM Pin1 + 50 mM PO4-", "result": 0.00169, "unit": "s⁻¹"}, {"measurement": "Pin catalyzing cis to trans isomerization rate k, Mean", "setting": "Pin1; 25 nM Pin1 + 50 mM PO4-", "result": 0.00212, "unit": "s⁻¹"}, {"measurement": "effect on Pin1 activity", "setting": "Pin1; 50 mM", "result": "inhibited"}]}, {"compound": "Pin1: recombinant His-Pin1, parvulin family PPIase", "values": [{"measurement": "Pin catalyzing cis to trans isomerization rate k, Exp. 1", "setting": "Pin1; 6.25 nM Pin1", "result": 0.00224, "unit": "s⁻¹"}, {"measurement": "Pin catalyzing cis to trans isomerization rate k, Exp. 2", "setting": "Pin1; 6.25 nM Pin1", "result": 0.00228, "unit": "s⁻¹"}, {"measurement": "Pin catalyzing cis to trans isomerization rate k, Exp. 3", "setting": "Pin1; 6.25 nM Pin1", "result": 0.00191, "unit": "s⁻¹"}, {"measurement": "Pin catalyzing cis to trans isomerization rate k, Mean", "setting": "Pin1; 6.25 nM Pin1", "result": 0.00214, "unit": "s⁻¹"}, {"measurement": "Pin catalyzing cis to trans isomerization rate k, Exp. 1", "setting": "Pin1; 12.5 nM Pin1", "result": 0.00419, "unit": "s⁻¹"}, {"measurement": "Pin catalyzing cis to trans isomerization rate k, Exp. 2", "setting": "Pin1; 12.5 nM Pin1", "result": 0.00424, "unit": "s⁻¹"}, {"measurement": "Pin catalyzing cis to trans isomerization rate k, Exp. 3", "setting": "Pin1; 12.5 nM Pin1", "result": 0.00418, "unit": "s⁻¹"}, {"measurement": "Pin catalyzing cis to trans isomerization rate k, Mean", "setting": "Pin1; 12.5 nM Pin1", "result": 0.0042, "unit": "s⁻¹"}, {"measurement": "Pin catalyzing cis to trans isomerization rate k, Exp. 1", "setting": "Pin1; 25 nM Pin1", "result": 0.00841, "unit": "s⁻¹"}, {"measurement": "Pin catalyzing cis to trans isomerization rate k, Exp. 2", "setting": "Pin1; 25 nM Pin1", "result": 0.00868, "unit": "s⁻¹"}, {"measurement": "Pin catalyzing cis to trans isomerization rate k, Exp. 3", "setting": "Pin1; 25 nM Pin1", "result": 0.00853, "unit": "s⁻¹"}, {"measurement": "Pin catalyzing cis to trans isomerization rate k, Mean", "setting": "Pin1; 25 nM Pin1", "result": 0.00854, "unit": "s⁻¹"}]}, {"compound": "C=CC[C@@H]1/C=C(\\C)C[C@H](C)C[C@H](OC)[C@H]2O[C@@](O)(C(=O)C(=O)N3CCCC[C@H]3C(=O)O[C@H](/C(C)=C/[C@@H]3CC[C@@H](O)[C@H](OC)C3)[C@H](C)[C@@H](O)CC1=O)[C@H](C)C[C@@H]2OC", "note": "[FK506]", "values": [{"measurement": "effect on viscosity of cell/fibrinogen mixture", "setting": "[1]; Jurkat T lymphocyte and fibrinogen, shear rate 100-1000 s^-1", "result": "reduce the viscosity"}, {"measurement": "effect on viscosity of cells in PBS or fibrinogen solution", "setting": "[1]; Jurkat cells in PBS alone or fibrinogen solution alone", "result": "neither CsA nor FK506 has an effect"}, {"measurement": "effect on PACS in two-way mixed lymphocyte reaction", "setting": "[2]; PBMCs treated with immunosuppressive drug", "result": "recover PACS"}, {"measurement": "cell surface PPIase activity k, Exp. 1", "setting": "[2]; healthy donors ab mixed", "result": 0.00026, "unit": "s⁻¹"}, {"measurement": "cell surface PPIase activity k, Exp. 2", "setting": "[2]; healthy donors ab mixed", "result": 0.00025, "unit": "s⁻¹"}, {"measurement": "cell surface PPIase activity k, Exp. 3", "setting": "[2]; healthy donors ab mixed", "result": 0.00019, "unit": "s⁻¹"}, {"measurement": "cell surface PPIase activity k, Exp. 4", "setting": "[2]; healthy donors ab mixed", "result": 0.00029, "unit": "s⁻¹"}, {"measurement": "cell surface PPIase activity k, Mean", "setting": "[2]; healthy donors ab mixed", "result": 0.0002475, "unit": "s⁻¹"}, {"measurement": "cell surface PPIase activity k, Exp. 1", "setting": "[2]; healthy donors ac mixed", "result": 0.00016, "unit": "s⁻¹"}, {"measurement": "cell surface PPIase activity k, Exp. 2", "setting": "[2]; healthy donors ac mixed", "result": 0.00014, "unit": "s⁻¹"}, {"measurement": "cell surface PPIase activity k, Exp. 3", "setting": "[2]; healthy donors ac mixed", "result": 0.00019, "unit": "s⁻¹"}, {"measurement": "cell surface PPIase activity k, Exp. 4", "setting": "[2]; healthy donors ac mixed", "result": 0.00016, "unit": "s⁻¹"}, {"measurement": "cell surface PPIase activity k, Mean", "setting": "[2]; healthy donors ac mixed", "result": 0.0001625, "unit": "s⁻¹"}, {"measurement": "cell surface PPIase activity k, Exp. 1", "setting": "[2]; healthy donors ad mixed", "result": 0.00016, "unit": "s⁻¹"}, {"measurement": "cell surface PPIase activity k, Exp. 3", "setting": "[2]; healthy donors ad mixed", "result": 0.00017, "unit": "s⁻¹"}, {"measurement": "cell surface PPIase activity k, Exp. 4", "setting": "[2]; healthy donors ad mixed", "result": 0.00015, "unit": "s⁻¹"}, {"measurement": "cell surface PPIase activity k, Mean", "setting": "[2]; healthy donors ad mixed", "result": 0.00016, "unit": "s⁻¹"}, {"measurement": "cell surface PPIase activity k, Exp. 1", "setting": "[2]; healthy donors bc mixed", "result": 0.00038, "unit": "s⁻¹"}, {"measurement": "cell surface PPIase activity k, Exp. 2", "setting": "[2]; healthy donors bc mixed", "result": 0.00029, "unit": "s⁻¹"}, {"measurement": "cell surface PPIase activity k, Exp. 3", "setting": "[2]; healthy donors bc mixed", "result": 0.00031, "unit": "s⁻¹"}, {"measurement": "cell surface PPIase activity k, Exp. 4", "setting": "[2]; healthy donors bc mixed", "result": 0.00036, "unit": "s⁻¹"}, {"measurement": "cell surface PPIase activity k, Mean", "setting": "[2]; healthy donors bc mixed", "result": 0.000335, "unit": "s⁻¹"}, {"measurement": "cell surface PPIase activity k, Exp. 1", "setting": "[2]; healthy donors bd mixed", "result": 0.00021, "unit": "s⁻¹"}, {"measurement": "cell surface PPIase activity k, Exp. 2", "setting": "[2]; healthy donors bd mixed", "result": 0.00026, "unit": "s⁻¹"}, {"measurement": "cell surface PPIase activity k, Exp. 4", "setting": "[2]; healthy donors bd mixed", "result": 0.00031, "unit": "s⁻¹"}, {"measurement": "cell surface PPIase activity k, Mean", "setting": "[2]; healthy donors bd mixed", "result": 0.00026, "unit": "s⁻¹"}, {"measurement": "cell surface PPIase activity k, Exp. 1", "setting": "[2]; healthy donors cd mixed", "result": 0.00017, "unit": "s⁻¹"}, {"measurement": "cell surface PPIase activity k, Exp. 2", "setting": "[2]; healthy donors cd mixed", "result": 0.00019, "unit": "s⁻¹"}, {"measurement": "cell surface PPIase activity k, Exp. 4", "setting": "[2]; healthy donors cd mixed", "result": 0.00018, "unit": "s⁻¹"}, {"measurement": "cell surface PPIase activity k, Mean", "setting": "[2]; healthy donors cd mixed", "result": 0.00018, "unit": "s⁻¹"}]}]}
